{"source": "patent US9073928B2", "about": "“Tosylate salt of cyclopropanecarboxylic acid 4-(6-chloro-3-methyl-4, 10-dihydro-3H-2,3,4,9-tetrabenzo[f]azulene-9-carbonyl)-2-fluorobenzylamide” (Vantia Limited, priority 2010, dated 2015)", "key": {"[1]": {"target": "T1, cloned human V1a receptor (Homo sapiens, UniProt P37288)", "T1 construct": "expressed in transfected cells", "T1 sequence (P37288 whole entry)": "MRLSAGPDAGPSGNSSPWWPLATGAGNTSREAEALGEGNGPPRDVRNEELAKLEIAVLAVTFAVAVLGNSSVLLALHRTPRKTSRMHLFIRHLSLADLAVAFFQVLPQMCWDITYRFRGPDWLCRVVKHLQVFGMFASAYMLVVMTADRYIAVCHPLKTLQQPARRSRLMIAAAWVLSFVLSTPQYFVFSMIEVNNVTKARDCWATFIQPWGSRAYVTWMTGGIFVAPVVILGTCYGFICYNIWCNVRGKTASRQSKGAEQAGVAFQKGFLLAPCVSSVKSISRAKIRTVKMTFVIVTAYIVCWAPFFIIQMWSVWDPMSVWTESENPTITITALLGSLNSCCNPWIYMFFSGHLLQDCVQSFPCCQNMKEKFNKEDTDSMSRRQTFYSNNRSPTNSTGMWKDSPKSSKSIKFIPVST", "experiment": "In vitro functional calcium mobilisation assay (FLIPR), antagonist activity", "format": "cell-based", "conditions": "read-out: mean fpKi (Human V1a) (converted)", "source_text": "The ability of the tosylate salt of the invention to inhibit the vasopressin V1a receptor may be determined using the in vitro functional calcium mobilisation assay (FLIPR) described in PCT/DK2005/000540. This assay measures antagonist activity at a cloned human V1a receptor."}, "[2]": {"experiment": "Oral availability: plasma exposure in rats after oral dosing of suspensions", "format": "in vivo", "conditions": "rat, suspension in 0.5% HPMC, 10 mg/kg p.o.", "quoted_text": "The plasma exposure in rats following dosing with the cyclopropanecarboxylic acid 4-(6-chloro-3-methyl-4,10-dihydro-3H-2,3,4,9-tetraazabenzo[f]azulene-9-carbonyl)-2-fluoro-benzylamide para-toluenesulphonate (“Tosylate”) has been examined in comparison with the corresponding free base, cyclopropanecarboxylic acid 4-(6-chloro-3-methyl-4,10-dihydro-3H-2,3,4,9-tetraazabenzo[f]azulene-9-carbonyl)-2-fluoro-benzylamide (“Free Base”)."}, "[3]": {"experiment": "Thermodynamic solubility in water (spectrophotometric method)", "procedure": "(§1) A spectrophotometric method was used. Standards were prepared in methanol (including a methanol blank) and the absorbance measured at 260 and 270 nm, from which a calibration line was generated for each wavelength. The test compound was incubated with agitation in water at 37° C. for 24 h before removal of non-soluble material by centrifugation. The supernatant was analysed against the calibration lines (after subtraction of the water blank response) and the mean of the determinations at the two wavelengths was reported."}, "V1a vasopressin receptor": {"target": "V1a vasopressin receptor (Homo sapiens, UniProt P37288)", "sequence (P37288 whole entry)": "as above", "conditions": "dysmenorrhoea patients, oral; cited from earlier work"}, "physchem": {"experiment": "physchem", "conditions": "37 °C, water, thermodynamic from solid", "procedure": "as §1"}}}
{"molecule": "Cc1ccc(S(=O)(=O)O)cc1.Cn1ncc2c1Nc1cc(Cl)ccc1N(C(=O)c1ccc(CNC(=O)C3CC3)c(F)c1)C2", "note": "[Tosylate, cyclopropanecarboxylic acid 4-(6-chloro-3-methyl-4,10-dihydro-3H-2,3,4,9-tetraazabenzo[f]azulene-9-carbonyl)-2-fluoro-benzylamide para-toluenesulphonate]", "values": [{"measurement": "Ki", "setting": "[1]", "value": 3.16, "unit": "nM"}, {"measurement": "AUC(0-t)", "setting": "[2]; in vivo, po", "value": 670, "unit": "ng·h/mL"}, {"measurement": "Cmax", "setting": "[2]; in vivo, po", "value": 209, "unit": "ng/mL"}, {"measurement": "Plasma exposure / absorption after oral dosing (in words)", "setting": "[2]", "value": "significant improvements in plasma exposure"}, {"measurement": "Solubility in water relative to known free base", "setting": "[3]", "value": 8, "unit": "×"}, {"measurement": "solubility at 24 h", "setting": "[3]; 37 °C, thermodynamic from solid", "value": 40, "unit": "µg/mL"}]}
{"molecule": "COc1ccc(S(=O)(=O)N2c3ccc(Cl)cc3[C@](O)(c3ccccc3Cl)[C@@H]2C(=O)N2CCC[C@H]2C(N)=O)cc1OC", "note": "[SR49059]", "values": [{"measurement": "Pain and additional pain-killer use compared to placebo", "setting": "V1a vasopressin receptor", "value": "dose-related decrease in the amount of additional pain-killer taken"}]}
{"molecule": "Cn1ncc2c1Nc1cc(Cl)ccc1N(C(=O)c1ccc(CNC(=O)C3CC3)c(F)c1)C2", "note": "[Free base, cyclopropanecarboxylic acid 4-(6-chloro-3-methyl-4,10-dihydro-3H-2,3,4,9-tetraazabenzo[f]azulene-9-carbonyl)-2-fluoro-benzylamide, reference compound]", "values": [{"measurement": "solubility at 24 h", "setting": "physchem", "value": 5, "unit": "µg/mL"}]}
